Experimental data reported in patent publication US10752900B2, “Oligonucleotides for modulating gene expression and uses thereof” (BIOGENERA S.P.A., priority 2012, dated 2020).

Columns and labels:
MYCN gene [1] = assay: QT-PCR, MYCN mRNA in Kelly cells; type: cell-based, human; details: for mRNA inhibition (%): Table 1, PNA 1 μM, RNA extracted after 24 hours; for mRNA inhibit. (%): Table 11, MYCN, 2.5 μM
Procedure: (§1) For the purpose of assessing the ability of the oligonucleotides of the present invention to modulate the expression of the target genes, their ability to reduce the quantity of messenger RNA was analyzed using the Real-Time PCR technique.
(§2) For this purpose, use was made of 24-well plates, which were seeded with 5.0×10^4 cells with 0.3 ml of OPTI-MEM (GIBCO BRL) medium, 4% FBS and 2 mM L-glutammine (experiments in triplicate) per well.
(§3) The cells were incubated for 24 hours at 37° C., in an atmosphere containing 5% CO2 to permit adherence to the base of the wells.
Each oligonucleotide analyzed, except for the PNA oligonucleotides, was incubated beforehand with 2 μl of Lipofectamine 2000 (Invitrogen), with 0.3 mL of serum-free OPTI-MEM (GIBCO BRL) medium.
(§4) For each well, the oligonucleotides were analyzed at the following final concentrations: • the antisense oligonucleotides siRNA and siRNA gapmer (i.e. the oligonucleotides containing one or more monomers of chemically modified nucleic acids at the 3′ or 5′ end, while in the central portion they have monomers of nucleic acids that have not been modified or have been modified at the level of the phosphodiester bond as a phosphorothioate bond) were used at 200 nM; • the antisense oligonucleotides containing phosphorothioate DNA monomers, the RNA antigene oligonucleotides (agRNA) and the oligonucleotides containing DNA monomers and LNA monomers were used at 10 μM; • the morpholino oligonucleotides were used at a concentration of 1 μM, and • the PNA oligonucleotides were administered at a concentration of 1 μM.
(§5) The cells were treated with the oligonucleotides, adding FBS up to 4% 6 hours after administration of the same. After 24 hours the total RNA was extracted from each well and purified using the RNeasy Mini Kit (QIAGEN).
(§6) Assays were performed on 8 cell lines obtained from 5 different human tumours which are correlated with MYCN expression, i.e.: • as a neuroblastoma model use was made of the cell lines Kelly, IMR-32 (where the MYCN gene is amplified and superexpressed) and SKNBE2c and LAN1 (where the MYCN gene is amplified and superexpressed and the p53 gene is mutated); • as a rabdomiosarcoma model use was made of the cell line RH30, where the MYCN gene is amplified and superexpressed; • as a Wilms' tumour model use was made of the cell line WiT49, where the MYCN gene is amplified and superexpressed; • as a retinoblastoma model use was made of the cell line Y79, where the MYCN gene is amplified and superexpressed; and • as a model of small cell lung cancer use was made of the cell line H69 where the MYCN gene is amplified and superexpressed.
(§7) As a control, use was made of the same cell lines as listed above treated with sterile water instead of oligonucleotides. Each RNA sample was quantified (in duplicate) using a NanoDrop ND-1000 spectrophotometer (NanoDrop Technologies). The first strand of cDNA was produced using the cDNA Synthesis Kit for RT-PCR (Roche). For the cDNA synthesis reaction a total of 1 μg of RNA was used. For the real-time PCR, 10 ng of cDNA in a final volume of 20 μl was used with SYBR Green Master Mix 2× (Applied Biosystems) (3 identical experiments were conducted in triplicate). Two housekeeping genes were used as positive controls: GAPDH and beta-actin (ACTB).
(§8) The conditions of the QT-PCR reaction were: 10 min at 95° C., 20 sec at 95° C., and 30 sec at 60° C., for 50 cycles.
(§9) As far as the PNA oligonucleotides are concerned, the results regarding their ability to inhibit the transcription of the MYCN gene and proliferation of Kelly cells are shown in Table 1.
(§10) The oligonucleotides were tested in vitro (at a concentration of 2.5 μM) to determine their ability to inhibit the transcription of the gene they are directed against by measuring the levels of the gene messenger in cellular models in which the gene of interest is overexpressed. The methods used are the ones described in example 1. […]

Kelly cells = assay: Cellular proliferation assay (ATP-Lite), Kelly cells; type: cell-based, human
Procedure: (§11) For the purpose of assessing the gene modulation ability of the oligonucleotides of the present invention, the effect of their administration on cell viability was determined.
(§12) For this purpose 5×10^3 cells per well were seeded into 96-well cell culture plates (experiments conducted in triplicate) with 100 μl of OPTI-MEM (GIBCO BRL) medium containing 4% FBS and 2 mM of L-glutammine.
(§13) The PNA oligonucleotides were administered at different concentrations (1 μM-2.5 μM-5 μM-10 μM) in order to observe a dose-effect relationship.
As regards all the other oligonucleotides, the concentrations at which they administered are listed in the paragraph:
(§14) The viability of the treated cells was determined at 48, 72, 96 and 168 hours after treatment.
(§15) Cell viability was assessed by means of an ATP-Lite assay (Luminescence ATP Detection Assay System, PerkinElmer) and is reported as the ratio between the average signal of the treated wells compared to the average value of the wells of untreated control cells. The cells were processed following the instructions provided with the kit.
(§16) The assays were performed on the same cell lines used to determine the levels of the MYCN gene messenger and listed in the paragraph: Treatments with Oligonucleotides—QT-PCR.
as §9
(§17) The ability of the tested oligonucleotides to inhibit the messenger of the gene of interest was measured and the proliferative capacity of the cells following administration of the oligonucleotides was also assessed.

Phoenix = assay: Cellular proliferation, Phoenix fibroblastoid-type cells; type: cell-based; details: Table 1; cells that do not express MYCN
Procedure: as §15
(§18) Moreover, the oligonucleotides having SEQ ID NO 1-23 were administered in lines of fibroblastoid-type cells (NIH-3T3 and Phoenix) and the results are shown in Table 1 (last two columns). […]

NIH-3T3 = assay: Cellular proliferation, NIH-3T3 fibroblastoid-type cells; type: cell-based; details: Table 1; cells that do not express MYCN
Procedure: as §15, §18

MYCN gene [2] = assay: QT-PCR, MYCN mRNA in H69 cells; type: cell-based, human; details: Table 11, MYCN, 2.5 μM
Procedure: as §1, §2, §3, §4, §5, §6, §7, §8
(§19) The PNAs having SEQ ID NO: 1-12 were also tested on different cell lines which overexpress MYCN (Kelly, SKNBE2c, RH30, WiT49, WERI-Rb1 1 and H69). The results are shown in Table 6 and confirm the selectivity and specificity of the inhibition effect of the PNAs on the product of protein translation of the MYCN gene.
as §10

H69 = assay: Cellular proliferation assay (ATP-Lite), H69 cells; type: cell-based, human; details: Table 11, MYCN-directed PNA, 2.5 μM
Procedure: as §11, §12, §13, §14, §15, §16, §19, §17

[3] = Table 1, treated vs untreated control cells
[4] = Table 11, MYCN-directed PNA, 2.5 μM

Substance	mRNA inhibition (%) (MYCN gene [1])	Cell Prolif. (%) (Kelly cells; [3])	Phoenix prolif. (%) (Phoenix)	NIH-3T3 prolif. (%) (NIH-3T3)	mRNA inhibit. (%) (MYCN gene [1])	Cell Prolif. (%) (Kelly cells; [4])	mRNA inhibit. (%) (MYCN gene [2])	Cell Prolif. (%) (H69)
SEQ ID NO: 20: PNA CGTCGATTTCTTCCTC without groups of consecutive guanines, negative control (PNA backbone, chemistry not fully specified) [reference compound]	5	100	100	100				
SEQ ID NO: 18: PNA GTGACAGTCATCTGTC without groups of consecutive guanines, negative control (PNA backbone, chemistry not fully specified) [reference compound]	10	98	100	100				
SEQ ID NO: 22: PNA GCGCCTCCCCTGATTT without groups of consecutive guanines, negative control (PNA backbone, chemistry not fully specified) [reference compound]	2	100	100	100				
SEQ ID NO: 23: PNA ATATCCCCCGAGCTTC without groups of consecutive guanines, negative control (PNA backbone, chemistry not fully specified) [reference compound]	2	100	100	100				
SEQ ID NO: 21: PNA CTCGAGTTTGACTCGC without groups of consecutive guanines, negative control (PNA backbone, chemistry not fully specified) [reference compound]	1	100	100	100				
SEQ ID NO: 66: PNA TCGGGAGCAGTGGGCA directed against MYCN (all peptide nucleic acid (PNA); antigene PNA, further chemistry not fully specified)					57	60	41	73
SEQ ID NO: 67: PNA GCGGGTCGCGGGCACG directed against MYCN (all peptide nucleic acid (PNA); antigene PNA)					60	56	42	71
SEQ ID NO: 19: PNA GACAGTCATCTGTCTG without groups of consecutive guanines, negative control (PNA backbone, chemistry not fully specified) [reference compound]	5	100	100	100				
SEQ ID NO: 68: PNA TGGAGGTCGGCGCCGG directed against MYCN (all peptide nucleic acid (PNA); antigene PNA)					74	35	62	49
SEQ ID NO: 13: PNA antigene oligonucleotide ACGCTCAGGGACCACG directed against MYCN (all peptide nucleic acid (PNA))	48	66	100	100				
SEQ ID NO: 14: PNA antigene oligonucleotide CCCGGACGAAGATGAC directed against MYCN (all peptide nucleic acid (PNA))	40	70	100	100				
SEQ ID NO: 16: PNA CCTGTCGTAGACAGCT without groups of consecutive guanines, negative control (PNA backbone, chemistry not fully specified) [reference compound]	14	90	100	100				
SEQ ID NO: 69: PNA TCGGCGGGAGGTAAGG directed against MYCN (all peptide nucleic acid (PNA); antigene PNA)					76	30	67	45
SEQ ID NO: 15: PNA antigene oligonucleotide ACTGTGTTGGAGCCGA directed against MYCN (all peptide nucleic acid (PNA))	37	77	100	100				
SEQ ID NO: 17: PNA TGTGACAGTCATCTGT without groups of consecutive guanines, negative control (PNA backbone, chemistry not fully specified) [reference compound]	10	98	100	100				
